From the supplement of paper PMC11208160
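Further: IS621 bridge recombinase in Escherichia coli cells against a fixed T5 target plasmid.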

Assay: recombinant UMI read abundance after kanamycin selection (control-corrected) (log10(CPM+1)); higher = more efficient recombination; extreme values may be limits of the assay; sequences stand for … in AGTGCAGAGAAAATCGGCCAGTTTTCTCTGCCTGCAGTCCGCATGCCGTGGGACCCCTTGGGTTCTAACCTGTTGCCTAGATTTATGCAGCGGACTGCCTTTCTCCCAAAGTGATAAACCGG…AGGTTGGTTTCACT; site = the 11-nt donor
Outline: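 In Escherichia coli, a pool of donor and donor-binding-loop pairs, each with a 12-nt UMI, was tested for the IS621 bridge recombinase. Plating was on IPTG (0.07 mM) plus kanamycin, or without selection, in two replicates. Recombinant UMIs were amplified by PCR across the donor–target junction and sequenced, and counts were reported as log10(CPM+1) after averaging and control-derived scaling.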
With “CATTTGGCATGGACCGGTTTTCCCGGTAATCCGTATTTGCT (site CTTTTGGCTAG)” the “recombinant UMI read abundance (log10)” value was 0.00821.
In the case of “CATTTGGCATGGACCGGTTTTCCCGGTAATCCGTATTTGGA (site CAATTGGCTTC)”, the “recombinant UMI read abundance (log10)” value is reported as 0.313.
For “CATTTGGCATGGACCGGTTTTCCCGGTAATCCGTATTTGGA (site CACTTGGCTTC)”, the “recombinant UMI read abundance (log10)” value was 0.438.
For “CATTTGGCATGGACCGGTTTTCCCGGTAATCCGTATTTGGA (site CAGTTGGCTTC)”, the “recombinant UMI read abundance (log10)” value was 0.466.
With “CATTTGGCATGGACCGGTTTTCCCGGTAATCCGTATTTGGA (site CATTTGGCTTC)” the “recombinant UMI read abundance (log10)” value was 0.328.
With “CCAAAAGCATGGACCGGTTTTCCCGGTAATCCGTATTTGAT (site CCAAAAGCTAT)” the “recombinant UMI read abundance (log10)” value was 1.34.
In the case of “CCAAAAGCATGGACCGGTTTTCCCGGTAATCCGTATTTGAT (site CCCAAAGCTAT)”, the “recombinant UMI read abundance (log10)” value is reported as 0.
In the case of “CCAAAAGCATGGACCGGTTTTCCCGGTAATCCGTATTTGAT (site CCGAAAGCTAT)”, the “recombinant UMI read abundance (log10)” value is reported as 0.
With “CCAAAAGCATGGACCGGTTTTCCCGGTAATCCGTATTTGAT (site CCTAAAGCTAT)” the “recombinant UMI read abundance (log10)” value was 0.
In the case of “CCAAAGACATGGACCGGTTTTCCCGGTAATCCGTATTTGCA (site CCAAAGACTTG)”, the “recombinant UMI read abundance (log10)” value is reported as 2.26.
With “CCAACTTCATGGACCGGTTTTCCCGGTAATCCGTATTTGAT (site CCAACTTCTAT)” the “recombinant UMI read abundance (log10)” value was 0.
For “CCAATATCATGGACCGGTTTTCCCGGTAATCCGTATTTGAG (site CCAATATCTCT)”, the “recombinant UMI read abundance (log10)” value was 1.21.
With “CCAATCACATGGACCGGTTTTCCCGGTAATCCGTATTTGGG (site CCAATCACTCC)” the “recombinant UMI read abundance (log10)” value was 0.336.
In the case of “CCAATTGCATGGACCGGTTTTCCCGGTAATCCGTATTTGAG (site CCAATTGCTCT)”, the “recombinant UMI read abundance (log10)” value is reported as 0.865.
In the case of “CCACAGTCATGGACCGGTTTTCCCGGTAATCCGTATTTGTG (site CCACAGTCTCA)”, the “recombinant UMI read abundance (log10)” value is reported as 1.93.
For “CCACATCCATGGACCGGTTTTCCCGGTAATCCGTATTTGAC (site ACACATCCTGT)”, the “recombinant UMI read abundance (log10)” value was 0.
With “CCACATCCATGGACCGGTTTTCCCGGTAATCCGTATTTGAC (site CCACATCCTGT)” the “recombinant UMI read abundance (log10)” value was 0.
For “CCACATCCATGGACCGGTTTTCCCGGTAATCCGTATTTGAC (site GCACATCCTGT)”, the “recombinant UMI read abundance (log10)” value was 0.
For “CCACATCCATGGACCGGTTTTCCCGGTAATCCGTATTTGAC (site TCACATCCTGT)”, the “recombinant UMI read abundance (log10)” value was 0.
For “CCACGTGCATGGACCGGTTTTCCCGGTAATCCGTATTTGAT (site CCAAGTGCTAT)”, the “recombinant UMI read abundance (log10)” value was 0.0041.
In the case of “CCACGTGCATGGACCGGTTTTCCCGGTAATCCGTATTTGAT (site CCACGTGCTAT)”, the “recombinant UMI read abundance (log10)” value is reported as 0.871.
For “CCACGTGCATGGACCGGTTTTCCCGGTAATCCGTATTTGAT (site CCAGGTGCTAT)”, the “recombinant UMI read abundance (log10)” value was 0.0128.
For “CCACGTGCATGGACCGGTTTTCCCGGTAATCCGTATTTGAT (site CCATGTGCTAT)”, the “recombinant UMI read abundance (log10)” value was 0.0143.
With “CCAGATGCATGGACCGGTTTTCCCGGTAATCCGTATTTGAT (site CCAGATGCTAT)” the “recombinant UMI read abundance (log10)” value was 1.26.
With “CCAGATGCATGGACCGGTTTTCCCGGTAATCCGTATTTGAT (site CCAGCTGCTAT)” the “recombinant UMI read abundance (log10)” value was 0.00516.
In the case of “CCAGATGCATGGACCGGTTTTCCCGGTAATCCGTATTTGAT (site CCAGGTGCTAT)”, the “recombinant UMI read abundance (log10)” value is reported as 0.261.
For “CCAGATGCATGGACCGGTTTTCCCGGTAATCCGTATTTGAT (site CCAGTTGCTAT)”, the “recombinant UMI read abundance (log10)” value was 0.00471.
In the case of “CCAGCCCCATGGACCGGTTTTCCCGGTAATCCGTATTTGCC (site CCAGCCCCTGG)”, the “recombinant UMI read abundance (log10)” value is reported as 0.451.
In the case of “CCAGGATCATGGACCGGTTTTCCCGGTAATCCGTATTTGCA (site ACAGTATCTTG)”, the “recombinant UMI read abundance (log10)” value is reported as 0.
For “CCAGGATCATGGACCGGTTTTCCCGGTAATCCGTATTTGCA (site CCAGGATCTTG)”, the “recombinant UMI read abundance (log10)” value was 0.424.
For “CCAGGTGCATGGACCGGTTTTCCCGGTAATCCGTATTTGAT (site ACAGGTGCTAT)”, the “recombinant UMI read abundance (log10)” value was 0.0184.
In the case of “CCAGGTGCATGGACCGGTTTTCCCGGTAATCCGTATTTGAT (site CAAGGTGCTAT)”, the “recombinant UMI read abundance (log10)” value is reported as 0.441.
In the case of “CCAGGTGCATGGACCGGTTTTCCCGGTAATCCGTATTTGAT (site CCAAGTGCTAT)”, the “recombinant UMI read abundance (log10)” value is reported as 1.24.
For “CCAGGTGCATGGACCGGTTTTCCCGGTAATCCGTATTTGAT (site CCACGTGCTAT)”, the “recombinant UMI read abundance (log10)” value was 0.497.
In the case of “CCAGGTGCATGGACCGGTTTTCCCGGTAATCCGTATTTGAT (site CCAGATGCTAT)”, the “recombinant UMI read abundance (log10)” value is reported as 1.74.
With “CCAGGTGCATGGACCGGTTTTCCCGGTAATCCGTATTTGAT (site CCAGCTGCTAT)” the “recombinant UMI read abundance (log10)” value was 0.00488.
With “CCAGGTGCATGGACCGGTTTTCCCGGTAATCCGTATTTGAT (site CCAGGAGCTAT)” the “recombinant UMI read abundance (log10)” value was 0.984.
With “CCAGGTGCATGGACCGGTTTTCCCGGTAATCCGTATTTGAT (site CCAGGCGCTAT)” the “recombinant UMI read abundance (log10)” value was 0.436.
In the case of “CCAGGTGCATGGACCGGTTTTCCCGGTAATCCGTATTTGAT (site CCAGGGGCTAT)”, the “recombinant UMI read abundance (log10)” value is reported as 1.32.
With “CCAGGTGCATGGACCGGTTTTCCCGGTAATCCGTATTTGAT (site CCAGGTACTAT)” the “recombinant UMI read abundance (log10)” value was 0.835.
With “CCAGGTGCATGGACCGGTTTTCCCGGTAATCCGTATTTGAT (site CCAGGTCCTAT)” the “recombinant UMI read abundance (log10)” value was 0.
With “CCAGGTGCATGGACCGGTTTTCCCGGTAATCCGTATTTGAT (site CCAGGTGCTAA)” the “recombinant UMI read abundance (log10)” value was 0.0192.
With “CCAGGTGCATGGACCGGTTTTCCCGGTAATCCGTATTTGAT (site CCAGGTGCTAC)” the “recombinant UMI read abundance (log10)” value was 0.227.
For “CCAGGTGCATGGACCGGTTTTCCCGGTAATCCGTATTTGAT (site CCAGGTGCTAG)”, the “recombinant UMI read abundance (log10)” value was 0.
In the case of “CCAGGTGCATGGACCGGTTTTCCCGGTAATCCGTATTTGAT (site CCAGGTGCTAT)”, the “recombinant UMI read abundance (log10)” value is reported as 1.32.
For “CCAGGTGCATGGACCGGTTTTCCCGGTAATCCGTATTTGAT (site CCAGGTGCTCT)”, the “recombinant UMI read abundance (log10)” value was 0.00956.
In the case of “CCAGGTGCATGGACCGGTTTTCCCGGTAATCCGTATTTGAT (site CCAGGTGCTGT)”, the “recombinant UMI read abundance (log10)” value is reported as 0.
For “CCAGGTGCATGGACCGGTTTTCCCGGTAATCCGTATTTGAT (site CCAGGTGCTTT)”, the “recombinant UMI read abundance (log10)” value was 0.206.
For “CCAGGTGCATGGACCGGTTTTCCCGGTAATCCGTATTTGAT (site CCAGGTTCTAT)”, the “recombinant UMI read abundance (log10)” value was 0.204.
With “CCAGGTGCATGGACCGGTTTTCCCGGTAATCCGTATTTGAT (site CCAGTTGCTAT)” the “recombinant UMI read abundance (log10)” value was 0.00491.
For “CCAGGTGCATGGACCGGTTTTCCCGGTAATCCGTATTTGAT (site CCATGTGCTAT)”, the “recombinant UMI read abundance (log10)” value was 0.018.
For “CCAGGTGCATGGACCGGTTTTCCCGGTAATCCGTATTTGAT (site CCCGGTGCTAT)”, the “recombinant UMI read abundance (log10)” value was 0.433.
For “CCAGGTGCATGGACCGGTTTTCCCGGTAATCCGTATTTGAT (site CCGGGTGCTAT)”, the “recombinant UMI read abundance (log10)” value was 1.47.
With “CCAGGTGCATGGACCGGTTTTCCCGGTAATCCGTATTTGAT (site CCTGGTGCTAT)” the “recombinant UMI read abundance (log10)” value was 0.
With “CCAGGTGCATGGACCGGTTTTCCCGGTAATCCGTATTTGAT (site CGAGGTGCTAT)” the “recombinant UMI read abundance (log10)” value was 0.0036.
In the case of “CCAGGTGCATGGACCGGTTTTCCCGGTAATCCGTATTTGAT (site CTAGGTGCTAT)”, the “recombinant UMI read abundance (log10)” value is reported as 0.629.
For “CCAGGTGCATGGACCGGTTTTCCCGGTAATCCGTATTTGAT (site GCAGGTGCTAT)”, the “recombinant UMI read abundance (log10)” value was 0.00654.
For “CCAGGTGCATGGACCGGTTTTCCCGGTAATCCGTATTTGAT (site TCAGGTGCTAT)”, the “recombinant UMI read abundance (log10)” value was 0.0184.
In the case of “CCATCATCATGGACCGGTTTTCCCGGTAATCCGTATTTGCT (site CAATCATCTAG)”, the “recombinant UMI read abundance (log10)” value is reported as 0.
With “CCATCATCATGGACCGGTTTTCCCGGTAATCCGTATTTGCT (site CCATCATCTAG)” the “recombinant UMI read abundance (log10)” value was 0.
For “CCATCATCATGGACCGGTTTTCCCGGTAATCCGTATTTGCT (site CGATCATCTAG)”, the “recombinant UMI read abundance (log10)” value was 0.
For “CCATCATCATGGACCGGTTTTCCCGGTAATCCGTATTTGCT (site CTATCATCTAG)”, the “recombinant UMI read abundance (log10)” value was 0.0047.
With “CCATCATCATGGACCGGTTTTCCCGGTAATCCGTATTTGTT (site CCATCATCTAA)” the “recombinant UMI read abundance (log10)” value was 0.00419.
In the case of “CCATCATCATGGACCGGTTTTCCCGGTAATCCGTATTTGTT (site CGATCATCTAG)”, the “recombinant UMI read abundance (log10)” value is reported as 0.
In the case of “CCATCGGCATGGACCGGTTTTCCCGGTAATCCGTATTTGTG (site CCATCGGCTCA)”, the “recombinant UMI read abundance (log10)” value is reported as 1.73.
With “CCATCTTCATGGACCGGTTTTCCCGGTAATCCGTATTTGCT (site CCATCTTCTAG)” the “recombinant UMI read abundance (log10)” value was 0.0559.
With “CCATCTTCATGGACCGGTTTTCCCGGTAATCCGTATTTGCT (site CGATCATCTAG)” the “recombinant UMI read abundance (log10)” value was 0.
With “CCATGACCATGGACCGGTTTTCCCGGTAATCCGTATTTGGA (site CCATGACCTTC)” the “recombinant UMI read abundance (log10)” value was 0.023.
